Reference: patent US11725011B2, “Bicyclic urea kinase inhibitors and uses thereof” (The Broad Institute, Inc., priority 2016, dated 2023)

Legend:
Experiment in all cases: KINOMEscan
Format in all cases: binding
Conditions in all cases: 1 uM
[1] = biological target: RSK4 (Kin.Dom.2-C-terminal) (Homo sapiens (Human), UniProt Q9UK32)
[2] = biological target: PHKG2 (Homo sapiens (Human), UniProt P15735)
[3] = biological target: CDKL2 (Homo sapiens (Human), UniProt Q92772)
[4] = biological target: EGFR (T790M) (Homo sapiens (Human), UniProt P00533, T790M)
[5] = biological target: ROCK2 (Homo sapiens (Human), UniProt O75116)
[6] = biological target: CDKL3 (Homo sapiens (Human), UniProt Q8IVW4)
[7] = biological target: BMPR1A (Homo sapiens (Human), UniProt P36894)
[8] = biological target: ROS1 (Homo sapiens (Human), UniProt P08922)
[9] = biological target: PAK7 (Homo sapiens (Human), UniProt Q9P286)
[10] = biological target: CAMK1 (Homo sapiens (Human), UniProt Q14012)
[11] = biological target: BLK (Homo sapiens (Human), UniProt P51451)
[12] = biological target: ERBB3 (Homo sapiens (Human), UniProt P21860)
[13] = biological target: WNK1 (Homo sapiens (Human), UniProt Q9H4A3)
[14] = biological target: SGK (Homo sapiens (Human), UniProt O00141)
[15] = biological target: WNK3 (Homo sapiens (Human), UniProt Q9BYP7)
[16] = biological target: YANK2 (Homo sapiens (Human), UniProt Q9NY57)
[17] = biological target: HUNK (Homo sapiens (Human), UniProt P57058)
[18] = biological target: PDPK1 (Homo sapiens (Human), UniProt O15530)
[19] = biological target: PIK4CB (Homo sapiens (Human), UniProt Q9UBF8)
[20] = biological target: GSK3B (Homo sapiens (Human), UniProt P49841)
[21] = biological target: BRK (Homo sapiens (Human), UniProt Q13882)
[22] = biological target: CDC2L1 (Homo sapiens (Human), UniProt P21127)
[23] = biological target: CDK8 (Homo sapiens (Human), UniProt P49336)
[24] = biological target: CLK4 (Homo sapiens (Human), UniProt Q9HAZ1)
[25] = biological target: ASK1 (Homo sapiens (Human), UniProt Q99683)
[26] = biological target: SIK2 (Homo sapiens (Human), UniProt Q9H0K1)
[27] = biological target: EPHB4 (Homo sapiens (Human), UniProt P54760)
[28] = biological target: AMPK-alpha2 (Homo sapiens (Human), UniProt P54646)
[29] = biological target: PIK3CA (C420R) (Homo sapiens (Human), UniProt P42336, C420R)
[30] = biological target: ULK3 (Homo sapiens (Human), UniProt Q6PHR2)
[31] = biological target: DLK (Homo sapiens (Human), UniProt Q12852)
[32] = biological target: ACVR1B (Homo sapiens (Human), UniProt P36896)
[33] = biological target: MAST1 (Homo sapiens (Human), UniProt Q9Y2H9)
[34] = biological target: ABL1 (F317L)-nonphosphorylated (Homo sapiens (Human), UniProt P00519, F317L)
[35] = biological target: DCAMKL3 (Homo sapiens (Human), UniProt Q9C098)
[36] = biological target: MARK3 (Homo sapiens (Human), UniProt P27448)
[37] = biological target: CAMK2D (Homo sapiens (Human), UniProt Q13557)
[38] = biological target: NEK4 (Homo sapiens (Human), UniProt P51957)
[39] = biological target: ABL1 (M351T)-phosphorylated (Homo sapiens (Human), UniProt P00519, M351T)
[40] = biological target: RIPK2 (Homo sapiens (Human), UniProt O43353)
[41] = biological target: DDR2 (Homo sapiens (Human), UniProt Q16832)

ASK1, sequence (Q99683 whole entry): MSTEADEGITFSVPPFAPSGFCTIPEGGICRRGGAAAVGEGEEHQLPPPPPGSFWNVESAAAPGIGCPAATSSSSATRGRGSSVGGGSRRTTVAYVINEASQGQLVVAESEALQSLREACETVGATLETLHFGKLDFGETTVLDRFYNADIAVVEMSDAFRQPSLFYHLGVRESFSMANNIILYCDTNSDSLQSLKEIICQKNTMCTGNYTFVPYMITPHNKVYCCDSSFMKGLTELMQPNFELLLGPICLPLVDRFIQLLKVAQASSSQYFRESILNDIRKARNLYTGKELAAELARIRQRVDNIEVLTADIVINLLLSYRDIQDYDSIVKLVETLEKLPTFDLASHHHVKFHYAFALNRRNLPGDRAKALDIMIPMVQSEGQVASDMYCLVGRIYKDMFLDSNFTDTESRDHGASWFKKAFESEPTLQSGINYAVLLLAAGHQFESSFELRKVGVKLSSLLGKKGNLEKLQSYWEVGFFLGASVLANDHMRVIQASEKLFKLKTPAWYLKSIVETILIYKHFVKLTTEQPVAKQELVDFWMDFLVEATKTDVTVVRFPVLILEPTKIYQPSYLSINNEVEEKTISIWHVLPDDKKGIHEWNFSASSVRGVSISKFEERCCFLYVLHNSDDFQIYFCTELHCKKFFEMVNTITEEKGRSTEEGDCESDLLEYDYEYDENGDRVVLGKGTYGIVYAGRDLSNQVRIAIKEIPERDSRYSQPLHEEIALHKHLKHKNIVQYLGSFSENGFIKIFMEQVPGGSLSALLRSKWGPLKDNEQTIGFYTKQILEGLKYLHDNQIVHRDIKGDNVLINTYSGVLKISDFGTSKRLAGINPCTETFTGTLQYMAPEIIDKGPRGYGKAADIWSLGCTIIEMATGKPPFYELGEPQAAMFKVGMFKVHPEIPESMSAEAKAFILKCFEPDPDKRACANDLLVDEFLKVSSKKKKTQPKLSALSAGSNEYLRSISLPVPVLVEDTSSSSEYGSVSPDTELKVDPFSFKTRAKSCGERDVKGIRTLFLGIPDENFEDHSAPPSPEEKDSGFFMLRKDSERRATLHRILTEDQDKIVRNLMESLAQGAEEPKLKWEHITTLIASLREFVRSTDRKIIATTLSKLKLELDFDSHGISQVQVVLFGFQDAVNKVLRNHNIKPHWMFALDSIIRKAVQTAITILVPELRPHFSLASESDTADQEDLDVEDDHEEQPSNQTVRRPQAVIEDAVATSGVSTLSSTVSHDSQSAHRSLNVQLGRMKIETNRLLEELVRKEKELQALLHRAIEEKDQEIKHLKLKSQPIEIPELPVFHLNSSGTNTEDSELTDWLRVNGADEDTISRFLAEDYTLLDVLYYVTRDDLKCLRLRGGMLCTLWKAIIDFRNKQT
PDPK1, sequence (O15530 whole entry): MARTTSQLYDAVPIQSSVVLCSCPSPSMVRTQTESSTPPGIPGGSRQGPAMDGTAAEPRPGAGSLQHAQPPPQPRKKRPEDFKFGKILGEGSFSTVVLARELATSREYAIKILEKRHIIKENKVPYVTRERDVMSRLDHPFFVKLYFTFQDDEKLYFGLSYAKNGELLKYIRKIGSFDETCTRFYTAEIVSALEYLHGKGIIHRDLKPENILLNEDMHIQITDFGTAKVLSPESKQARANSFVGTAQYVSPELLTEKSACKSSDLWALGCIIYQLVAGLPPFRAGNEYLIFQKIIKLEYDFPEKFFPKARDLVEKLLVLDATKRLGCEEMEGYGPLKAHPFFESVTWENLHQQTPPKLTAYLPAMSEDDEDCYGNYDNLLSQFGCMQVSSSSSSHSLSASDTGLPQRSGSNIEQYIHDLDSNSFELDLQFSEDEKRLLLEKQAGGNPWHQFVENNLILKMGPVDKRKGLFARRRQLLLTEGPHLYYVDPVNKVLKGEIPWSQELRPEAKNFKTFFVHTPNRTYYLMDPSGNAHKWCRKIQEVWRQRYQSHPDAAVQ
ERBB3, sequence (P21860 20-1342): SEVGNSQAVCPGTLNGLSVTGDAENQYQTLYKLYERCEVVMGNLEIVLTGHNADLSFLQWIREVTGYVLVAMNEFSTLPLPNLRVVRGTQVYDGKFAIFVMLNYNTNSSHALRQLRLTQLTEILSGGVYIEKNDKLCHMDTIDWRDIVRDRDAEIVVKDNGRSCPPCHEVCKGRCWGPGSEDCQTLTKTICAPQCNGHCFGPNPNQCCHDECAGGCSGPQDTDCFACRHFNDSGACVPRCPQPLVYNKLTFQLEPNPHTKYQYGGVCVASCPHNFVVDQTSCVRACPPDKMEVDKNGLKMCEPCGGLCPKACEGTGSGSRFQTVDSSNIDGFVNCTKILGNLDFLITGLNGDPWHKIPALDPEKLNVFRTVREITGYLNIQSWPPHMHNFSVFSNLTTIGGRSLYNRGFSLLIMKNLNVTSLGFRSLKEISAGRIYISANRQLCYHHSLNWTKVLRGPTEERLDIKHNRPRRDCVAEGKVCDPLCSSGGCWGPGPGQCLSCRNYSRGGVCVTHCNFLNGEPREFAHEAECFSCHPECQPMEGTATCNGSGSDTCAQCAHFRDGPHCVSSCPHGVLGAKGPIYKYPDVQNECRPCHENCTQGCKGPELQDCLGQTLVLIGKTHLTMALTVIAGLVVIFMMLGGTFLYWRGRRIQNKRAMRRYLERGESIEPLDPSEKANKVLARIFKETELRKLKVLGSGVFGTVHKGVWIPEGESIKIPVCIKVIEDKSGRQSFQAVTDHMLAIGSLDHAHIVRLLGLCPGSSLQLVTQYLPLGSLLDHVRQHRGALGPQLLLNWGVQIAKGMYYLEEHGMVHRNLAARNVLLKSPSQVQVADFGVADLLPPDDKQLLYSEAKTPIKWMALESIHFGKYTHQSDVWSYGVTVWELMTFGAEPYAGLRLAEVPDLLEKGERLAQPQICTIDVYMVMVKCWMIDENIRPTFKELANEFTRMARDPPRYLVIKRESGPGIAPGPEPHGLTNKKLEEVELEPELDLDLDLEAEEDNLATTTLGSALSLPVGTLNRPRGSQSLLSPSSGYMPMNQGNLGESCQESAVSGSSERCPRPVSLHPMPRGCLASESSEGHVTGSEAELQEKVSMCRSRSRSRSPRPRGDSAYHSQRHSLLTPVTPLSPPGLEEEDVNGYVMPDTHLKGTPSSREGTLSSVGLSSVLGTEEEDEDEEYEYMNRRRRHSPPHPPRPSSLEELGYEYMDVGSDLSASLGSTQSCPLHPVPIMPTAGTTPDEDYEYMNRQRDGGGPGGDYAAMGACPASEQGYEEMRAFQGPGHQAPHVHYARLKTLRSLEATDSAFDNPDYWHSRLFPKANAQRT
DLK, sequence (Q12852 whole entry): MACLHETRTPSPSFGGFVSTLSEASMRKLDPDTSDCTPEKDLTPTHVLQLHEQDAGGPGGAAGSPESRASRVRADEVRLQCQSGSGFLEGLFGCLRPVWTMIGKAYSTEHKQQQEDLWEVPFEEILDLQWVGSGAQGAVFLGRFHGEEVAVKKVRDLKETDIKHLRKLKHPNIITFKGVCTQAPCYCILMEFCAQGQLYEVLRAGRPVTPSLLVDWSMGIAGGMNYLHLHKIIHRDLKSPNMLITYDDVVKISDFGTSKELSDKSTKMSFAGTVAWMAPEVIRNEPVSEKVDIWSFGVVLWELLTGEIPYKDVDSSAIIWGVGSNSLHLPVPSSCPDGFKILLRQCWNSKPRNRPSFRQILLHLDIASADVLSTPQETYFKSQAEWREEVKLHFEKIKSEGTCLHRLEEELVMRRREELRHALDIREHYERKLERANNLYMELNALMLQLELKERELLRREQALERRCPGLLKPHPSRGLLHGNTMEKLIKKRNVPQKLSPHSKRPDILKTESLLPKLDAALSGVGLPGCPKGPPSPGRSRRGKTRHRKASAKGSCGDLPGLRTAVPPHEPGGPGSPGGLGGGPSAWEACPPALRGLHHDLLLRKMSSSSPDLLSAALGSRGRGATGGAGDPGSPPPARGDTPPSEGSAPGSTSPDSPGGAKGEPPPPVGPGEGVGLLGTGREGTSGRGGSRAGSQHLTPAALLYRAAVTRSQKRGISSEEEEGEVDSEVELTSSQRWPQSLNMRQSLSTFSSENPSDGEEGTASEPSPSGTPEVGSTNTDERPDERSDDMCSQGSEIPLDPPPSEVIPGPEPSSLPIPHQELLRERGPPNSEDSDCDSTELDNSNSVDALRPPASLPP
DCAMKL3, sequence (Q9C098 whole entry, looked up): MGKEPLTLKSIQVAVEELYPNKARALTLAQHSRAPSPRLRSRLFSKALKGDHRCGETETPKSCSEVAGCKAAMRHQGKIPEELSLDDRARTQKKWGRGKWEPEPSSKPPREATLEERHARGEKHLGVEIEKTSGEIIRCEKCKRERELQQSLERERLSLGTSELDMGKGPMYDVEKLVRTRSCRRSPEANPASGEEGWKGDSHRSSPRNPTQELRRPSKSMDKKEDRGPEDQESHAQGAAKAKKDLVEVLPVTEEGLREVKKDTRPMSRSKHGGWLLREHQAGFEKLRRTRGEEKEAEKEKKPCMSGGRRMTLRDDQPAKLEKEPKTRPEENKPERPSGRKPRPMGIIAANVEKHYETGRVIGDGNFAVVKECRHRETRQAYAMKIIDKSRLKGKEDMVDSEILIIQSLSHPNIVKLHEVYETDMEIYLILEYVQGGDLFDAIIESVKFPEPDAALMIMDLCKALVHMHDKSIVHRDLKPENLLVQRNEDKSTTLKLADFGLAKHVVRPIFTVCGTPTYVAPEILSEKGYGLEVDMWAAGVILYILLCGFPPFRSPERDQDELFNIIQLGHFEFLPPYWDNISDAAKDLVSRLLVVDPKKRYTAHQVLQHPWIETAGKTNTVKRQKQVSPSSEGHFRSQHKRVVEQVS
RSK4 (Kin.Dom.2-C-terminal), sequence (Q9UK32 426-683): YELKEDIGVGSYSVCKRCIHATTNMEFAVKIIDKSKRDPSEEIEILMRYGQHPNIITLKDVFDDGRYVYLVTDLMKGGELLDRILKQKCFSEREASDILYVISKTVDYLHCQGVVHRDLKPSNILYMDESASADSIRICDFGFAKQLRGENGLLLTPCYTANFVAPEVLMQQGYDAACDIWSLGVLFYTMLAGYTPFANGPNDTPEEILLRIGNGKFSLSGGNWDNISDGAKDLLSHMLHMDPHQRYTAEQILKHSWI

COc1ccc(N2C(=O)N(c3c(C)cccc3C)Cc3cnc(Nc4ccc(N5CCN(C)CC5)cc4)nc32)c(OC)c1 [HG-11-136-01]
KINOMEscan RSK4 (Kin.Dom.2-C-terminal) [1]: 4 | KINOMEscan PHKG2 [2]: 93 | KINOMEscan CDKL2 [3]: 14 | KINOMEscan EGFR (T790M) [4]: 0.7 | KINOMEscan ROCK2 [5]: 89 | KINOMEscan CDKL3 [6]: 58 | KINOMEscan BMPR1A [7]: 4.6 | KINOMEscan ROS1 [8]: 63 | KINOMEscan PAK7 [9]: 1.3 | KINOMEscan CAMK1 [10]: 82 | KINOMEscan BLK [11]: 0.1 | KINOMEscan ERBB3 [12]: 0 | KINOMEscan WNK1 [13]: 89 | KINOMEscan SGK [14]: 63 | KINOMEscan WNK3 [15]: 50 | KINOMEscan YANK2 [16]: 1.8 | KINOMEscan HUNK [17]: 28 | KINOMEscan PDPK1 [18]: 100 | KINOMEscan PIK4CB [19]: 63 | KINOMEscan GSK3B [20]: 100 | KINOMEscan BRK [21]: 0.45 | KINOMEscan CDC2L1 [22]: 79 | KINOMEscan CDK8 [23]: 100 | KINOMEscan CLK4 [24]: 33 | KINOMEscan ASK1 [25]: 100 | KINOMEscan SIK2 [26]: 6.1 | KINOMEscan EPHB4 [27]: 0 | KINOMEscan AMPK-alpha2 [28]: 30 | KINOMEscan PIK3CA (C420R) [29]: 69 | KINOMEscan ULK3 [30]: 2 | KINOMEscan DLK [31]: 6.6 | KINOMEscan ACVR1B [32]: 9.6 | KINOMEscan MAST1 [33]: 62 | KINOMEscan ABL1 (F317L)-nonphosphorylated [34]: 0 | KINOMEscan DCAMKL3 [35]: 77 | KINOMEscan MARK3 [36]: 1.6 | KINOMEscan CAMK2D [37]: 100 | KINOMEscan NEK4 [38]: 100 | KINOMEscan ABL1 (M351T)-phosphorylated [39]: 0.55 | KINOMEscan RIPK2 [40]: 0.1 | KINOMEscan DDR2 [41]: 1.6
